Measurements reported in ChEMBL document CHEMBL1201862, “PubChem BioAssay data set” (2004).
Active and inactive are the calls of the source.

Assays:
[1] = biological target: T1, Zinc finger protein mex-5 (Caenorhabditis elegans, UniProt Q9XUB2); experiment: MEX-5/TCR-2 RNA interaction inhibitors, dose response, biochemical, C. elegans, fluorescence polarization (AID 1960)
T1 sequence (Q9XUB2 whole entry): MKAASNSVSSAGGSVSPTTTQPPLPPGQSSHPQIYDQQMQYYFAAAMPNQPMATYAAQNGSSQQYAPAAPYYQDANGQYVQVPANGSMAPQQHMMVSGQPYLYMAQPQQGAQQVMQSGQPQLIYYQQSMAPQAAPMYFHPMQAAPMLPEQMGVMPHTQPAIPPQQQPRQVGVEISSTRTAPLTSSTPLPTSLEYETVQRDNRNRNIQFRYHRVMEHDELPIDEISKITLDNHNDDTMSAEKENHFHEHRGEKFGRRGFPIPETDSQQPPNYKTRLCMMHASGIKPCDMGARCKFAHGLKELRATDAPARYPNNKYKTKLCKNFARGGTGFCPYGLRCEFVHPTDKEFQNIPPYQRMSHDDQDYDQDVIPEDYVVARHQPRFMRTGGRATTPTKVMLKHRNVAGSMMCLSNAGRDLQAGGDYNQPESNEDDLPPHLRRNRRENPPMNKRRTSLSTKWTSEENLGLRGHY

[2] = biological target: T2, Endoribonuclease toxin MazF (Escherichia coli K-12, UniProt P0AE70); experiment: fluorescent RNA oligo signal without MazF, dose response, counter-screen for MazEF activator project, biochemical, fluorescence, single-stranded RNase substrate (AID 588502); assay type: functional
T2 sequence (P0AE70 whole entry): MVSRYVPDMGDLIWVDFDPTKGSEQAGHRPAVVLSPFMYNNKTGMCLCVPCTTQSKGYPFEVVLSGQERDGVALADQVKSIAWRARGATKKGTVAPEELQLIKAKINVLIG

[3] = biological target: T2, Endoribonuclease toxin MazF; experiment: MazF toxin RNase activators, dose response, biochemical, fluorescence, single-stranded RNA substrate, uHTS hits (AID 588481); assay type: functional
[4] = biological target: T3, RNA-binding protein pos-1 (Caenorhabditis elegans, UniProt G5EF15); experiment: inhibitors of POS-1/mex-3 RNA binding, dose response, biochemical, fluorescence polarization (AID 1964);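 note: purified POS-1 fused to maltose binding protein made in E. coli; potency of compounds blocking POS-1 binding to fluorescent RNA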
T3 sequence (G5EF15 whole entry): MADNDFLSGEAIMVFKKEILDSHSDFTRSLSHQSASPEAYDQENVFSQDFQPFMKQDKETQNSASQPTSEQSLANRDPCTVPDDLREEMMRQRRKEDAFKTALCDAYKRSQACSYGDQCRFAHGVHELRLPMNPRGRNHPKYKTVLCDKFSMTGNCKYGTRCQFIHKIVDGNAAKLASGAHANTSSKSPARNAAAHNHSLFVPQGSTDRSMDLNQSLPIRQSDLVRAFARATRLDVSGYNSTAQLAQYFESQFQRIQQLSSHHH

[5] = CRF-BP/CRF-R2 complex antagonists, dose response, cell-based, uHTS hits, 384-well (AID 651639); assay type: functional, Homo sapiens; conditions: read-out: IC50_Mean
Cytochrome P450 2C9 = Cytochrome P450 2C9 (Homo sapiens, UniProt P11712)
Sequence of Cytochrome P450 2C9 (P11712 whole entry): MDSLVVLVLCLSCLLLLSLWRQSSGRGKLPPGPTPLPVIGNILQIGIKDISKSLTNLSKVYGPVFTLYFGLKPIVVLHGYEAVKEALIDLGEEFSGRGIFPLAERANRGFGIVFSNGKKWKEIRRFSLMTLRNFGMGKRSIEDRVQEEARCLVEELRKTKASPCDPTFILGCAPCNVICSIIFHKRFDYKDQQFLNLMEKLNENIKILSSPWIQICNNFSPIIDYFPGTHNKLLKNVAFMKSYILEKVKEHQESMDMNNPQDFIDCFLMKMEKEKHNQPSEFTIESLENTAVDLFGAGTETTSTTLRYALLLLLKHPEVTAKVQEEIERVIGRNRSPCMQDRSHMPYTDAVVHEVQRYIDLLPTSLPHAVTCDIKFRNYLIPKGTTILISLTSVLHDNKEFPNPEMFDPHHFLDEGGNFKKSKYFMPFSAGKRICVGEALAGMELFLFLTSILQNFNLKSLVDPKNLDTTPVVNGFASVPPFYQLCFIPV

[6] = biological target: T4, Corticotropin-releasing factor receptor 2/Corticotropin-releasing factor-binding protein (Homo sapiens, UniProt P24387+Q13324); experiment: Dose Response confirmation of uHTS hits for small molecule antagonists of the CRF-binding protein and CRF-R2 receptor complex.; assay type: functional; conditions: read-out: IC50_Mean
T4 sequence (Q13324 whole entry): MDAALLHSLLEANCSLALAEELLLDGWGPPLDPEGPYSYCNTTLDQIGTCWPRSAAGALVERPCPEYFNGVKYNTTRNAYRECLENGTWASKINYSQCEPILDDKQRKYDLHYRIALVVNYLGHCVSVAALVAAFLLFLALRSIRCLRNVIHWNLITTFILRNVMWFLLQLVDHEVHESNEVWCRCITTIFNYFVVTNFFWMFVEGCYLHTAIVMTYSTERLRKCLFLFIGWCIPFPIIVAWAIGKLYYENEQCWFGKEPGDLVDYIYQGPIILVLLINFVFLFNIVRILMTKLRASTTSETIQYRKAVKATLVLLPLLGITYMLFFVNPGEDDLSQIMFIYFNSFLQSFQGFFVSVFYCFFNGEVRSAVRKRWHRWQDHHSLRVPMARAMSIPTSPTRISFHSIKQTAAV
T4 sequence (P24387 whole entry): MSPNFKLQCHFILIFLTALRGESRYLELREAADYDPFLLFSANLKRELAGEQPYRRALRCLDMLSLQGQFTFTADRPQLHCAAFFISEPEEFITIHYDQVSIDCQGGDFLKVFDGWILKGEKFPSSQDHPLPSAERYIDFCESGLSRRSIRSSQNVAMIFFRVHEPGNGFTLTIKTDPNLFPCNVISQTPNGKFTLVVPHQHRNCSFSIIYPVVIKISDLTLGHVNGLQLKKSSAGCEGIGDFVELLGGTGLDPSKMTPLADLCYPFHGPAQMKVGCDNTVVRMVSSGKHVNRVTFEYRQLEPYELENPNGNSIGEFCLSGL

[7] = biological target: T4, Corticotropin-releasing factor receptor 2/Corticotropin-releasing factor-binding protein; experiment: activators of CRF receptor 2 with binding protein – uHTS hits, confirmation (AID 602473); assay type: functional; conditions: read-out: EC50_Mean
Cytochrome P450 1A2 = biological target: T5, Cytochrome P450 1A2 (Homo sapiens, UniProt P05177);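 note: PubChem cytochrome P450 panel assay, CYP1A2 panel member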
T5 sequence (P05177 whole entry): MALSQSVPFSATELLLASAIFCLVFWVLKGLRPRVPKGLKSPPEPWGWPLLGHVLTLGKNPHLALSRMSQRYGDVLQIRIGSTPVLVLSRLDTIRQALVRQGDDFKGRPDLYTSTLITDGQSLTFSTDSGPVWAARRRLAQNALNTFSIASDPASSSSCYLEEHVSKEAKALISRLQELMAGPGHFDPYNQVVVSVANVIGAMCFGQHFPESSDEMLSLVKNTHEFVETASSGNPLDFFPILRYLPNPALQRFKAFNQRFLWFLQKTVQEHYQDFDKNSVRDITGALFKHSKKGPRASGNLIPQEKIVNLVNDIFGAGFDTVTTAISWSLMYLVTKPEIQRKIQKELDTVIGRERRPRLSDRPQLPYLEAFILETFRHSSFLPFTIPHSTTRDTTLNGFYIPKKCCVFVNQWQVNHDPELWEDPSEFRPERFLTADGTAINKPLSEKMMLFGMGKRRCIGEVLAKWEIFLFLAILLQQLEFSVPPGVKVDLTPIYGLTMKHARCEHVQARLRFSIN

Cytochrome P450 3A4 [8] = biological target: T6, Cytochrome P450 3A4 (Homo sapiens, UniProt P08684)
T6 sequence (P08684 whole entry): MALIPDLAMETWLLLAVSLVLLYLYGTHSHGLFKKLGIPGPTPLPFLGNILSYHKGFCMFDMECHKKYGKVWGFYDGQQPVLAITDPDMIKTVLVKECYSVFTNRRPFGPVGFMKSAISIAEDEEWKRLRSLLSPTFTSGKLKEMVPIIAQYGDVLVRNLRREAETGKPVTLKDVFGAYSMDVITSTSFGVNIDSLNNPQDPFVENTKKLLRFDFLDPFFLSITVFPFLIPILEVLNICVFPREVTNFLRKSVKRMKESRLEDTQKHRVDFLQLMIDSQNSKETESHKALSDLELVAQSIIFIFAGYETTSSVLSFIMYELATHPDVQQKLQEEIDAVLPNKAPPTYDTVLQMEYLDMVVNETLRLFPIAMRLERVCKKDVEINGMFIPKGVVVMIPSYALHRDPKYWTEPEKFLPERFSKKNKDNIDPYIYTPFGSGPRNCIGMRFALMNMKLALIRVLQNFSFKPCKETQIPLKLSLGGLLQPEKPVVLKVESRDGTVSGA

[9] = biological target: T7, Rac GTPase-activating protein 1 (Homo sapiens, UniProt Q9H0H5); experiment: MgcRacGAP GTPase-activating activity inhibitors, confirmation, biochemical, ADP Hunter fluorescence, primary and confirmatory (AID 624330); assay type: functional
T7 sequence (Q9H0H5 whole entry): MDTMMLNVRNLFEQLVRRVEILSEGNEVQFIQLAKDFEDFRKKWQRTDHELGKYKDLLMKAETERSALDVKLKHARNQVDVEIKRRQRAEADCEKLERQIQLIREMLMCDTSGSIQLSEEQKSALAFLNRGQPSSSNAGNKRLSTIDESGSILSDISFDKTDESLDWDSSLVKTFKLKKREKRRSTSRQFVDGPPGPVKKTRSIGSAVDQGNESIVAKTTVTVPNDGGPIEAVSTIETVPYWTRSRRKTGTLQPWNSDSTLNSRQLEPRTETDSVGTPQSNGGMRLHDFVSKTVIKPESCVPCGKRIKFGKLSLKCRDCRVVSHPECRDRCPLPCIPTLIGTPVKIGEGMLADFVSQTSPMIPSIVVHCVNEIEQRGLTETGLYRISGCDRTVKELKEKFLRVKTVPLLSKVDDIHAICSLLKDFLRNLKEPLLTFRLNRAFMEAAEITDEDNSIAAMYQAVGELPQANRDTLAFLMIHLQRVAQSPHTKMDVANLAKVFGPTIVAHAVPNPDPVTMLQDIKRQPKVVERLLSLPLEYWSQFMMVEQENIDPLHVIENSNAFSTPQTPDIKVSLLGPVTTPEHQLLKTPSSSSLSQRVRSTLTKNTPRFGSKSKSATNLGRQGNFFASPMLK

Nonstructural protein 1 = Nonstructural protein 1 (Influenza A virus, UniProt Q194T2); assay type: functional, Influenza A virus (A/California/07/2009(H1N1))
Sequence of Nonstructural protein 1 (Q194T2 whole entry): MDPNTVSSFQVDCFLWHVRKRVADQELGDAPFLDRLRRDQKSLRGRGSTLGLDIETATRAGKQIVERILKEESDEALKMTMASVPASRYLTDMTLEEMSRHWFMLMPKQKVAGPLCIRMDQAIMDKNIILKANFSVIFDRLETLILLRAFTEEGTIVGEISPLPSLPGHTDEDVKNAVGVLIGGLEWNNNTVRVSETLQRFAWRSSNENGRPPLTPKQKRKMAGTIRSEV

Cytochrome P450 3A4 [10] = biological target: T6, Cytochrome P450 3A4; conditions: Potency
[11] = biological target: Voltage-gated inwardly rectifying potassium channel KCNH2 (Homo sapiens, UniProt Q12809); conditions: Potency;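 note: confirmatory quantitative high-throughput screen measuring inhibition of hERG channel activity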
Sequence of Voltage-gated inwardly rectifying potassium channel KCNH2 (Q12809 whole entry): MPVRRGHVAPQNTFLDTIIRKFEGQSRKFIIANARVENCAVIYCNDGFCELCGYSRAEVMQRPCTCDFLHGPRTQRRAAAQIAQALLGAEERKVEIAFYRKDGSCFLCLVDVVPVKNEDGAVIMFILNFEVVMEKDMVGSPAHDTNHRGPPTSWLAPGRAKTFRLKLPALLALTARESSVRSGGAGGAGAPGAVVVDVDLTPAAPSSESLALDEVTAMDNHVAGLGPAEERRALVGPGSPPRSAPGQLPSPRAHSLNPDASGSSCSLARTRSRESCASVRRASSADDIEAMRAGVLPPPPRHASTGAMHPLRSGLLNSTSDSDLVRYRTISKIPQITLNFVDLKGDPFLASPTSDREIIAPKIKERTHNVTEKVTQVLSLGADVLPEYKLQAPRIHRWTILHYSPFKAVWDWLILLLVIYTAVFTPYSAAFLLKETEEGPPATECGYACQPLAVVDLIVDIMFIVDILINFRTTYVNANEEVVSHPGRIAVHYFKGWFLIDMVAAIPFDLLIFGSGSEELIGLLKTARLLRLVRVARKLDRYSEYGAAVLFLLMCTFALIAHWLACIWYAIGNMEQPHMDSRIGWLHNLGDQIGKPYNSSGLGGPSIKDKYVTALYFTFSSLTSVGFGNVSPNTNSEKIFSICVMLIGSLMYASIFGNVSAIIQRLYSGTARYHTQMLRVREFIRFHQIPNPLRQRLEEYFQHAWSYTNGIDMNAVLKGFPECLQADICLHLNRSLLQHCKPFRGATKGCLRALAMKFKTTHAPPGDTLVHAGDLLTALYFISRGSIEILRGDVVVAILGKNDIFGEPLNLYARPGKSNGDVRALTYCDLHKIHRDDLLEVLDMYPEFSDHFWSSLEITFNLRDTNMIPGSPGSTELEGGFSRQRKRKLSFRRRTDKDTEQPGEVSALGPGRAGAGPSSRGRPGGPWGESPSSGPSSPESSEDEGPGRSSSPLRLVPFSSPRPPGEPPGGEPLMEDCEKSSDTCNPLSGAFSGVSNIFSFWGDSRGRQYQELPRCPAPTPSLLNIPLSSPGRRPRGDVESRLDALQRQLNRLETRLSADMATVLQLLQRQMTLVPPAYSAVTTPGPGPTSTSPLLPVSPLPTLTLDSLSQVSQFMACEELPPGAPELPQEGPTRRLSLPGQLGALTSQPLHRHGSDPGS

[12] = biological target: T8, Low molecular weight phosphotyrosine protein phosphatase (Homo sapiens, UniProt P24666); assay type: functional; conditions: read-out: IC50_Mean
T8 sequence (P24666 whole entry): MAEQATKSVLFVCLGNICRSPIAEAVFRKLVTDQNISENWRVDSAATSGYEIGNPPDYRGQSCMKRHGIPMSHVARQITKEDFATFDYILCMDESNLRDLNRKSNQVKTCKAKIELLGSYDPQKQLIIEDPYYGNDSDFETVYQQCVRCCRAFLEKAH

[13] = biological target: 26S proteasome non-ATPase regulatory subunit 14 (Homo sapiens, UniProt O00487); experiment: inhibition of proteasome subunit RPN11 – biochemical, fluorescence polarization, uHTS hits, confirmation (AID 602368); assay type: functional
Sequence of 26S proteasome non-ATPase regulatory subunit 14 (O00487 whole entry, the tested form may be a part): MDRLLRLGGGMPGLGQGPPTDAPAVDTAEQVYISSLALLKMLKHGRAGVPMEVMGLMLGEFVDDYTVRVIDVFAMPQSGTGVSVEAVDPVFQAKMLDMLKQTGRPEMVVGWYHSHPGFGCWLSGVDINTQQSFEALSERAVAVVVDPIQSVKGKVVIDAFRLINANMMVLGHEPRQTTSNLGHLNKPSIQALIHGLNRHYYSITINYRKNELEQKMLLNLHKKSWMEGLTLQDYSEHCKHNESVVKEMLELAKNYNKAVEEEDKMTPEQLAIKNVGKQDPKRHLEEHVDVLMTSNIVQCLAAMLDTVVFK

[14] = biological target: T9, Carboxy-terminal domain RNA polymerase II polypeptide A small phosphatase 1 (Homo sapiens, UniProt Q9GZU7); experiment: inhibitors of CTDSP1, concentration-response testing, biochemical assay, absorbance-based, actives from ultra-high-throughput screening (AID 540297); assay type: functional
T9 sequence (Q9GZU7 whole entry): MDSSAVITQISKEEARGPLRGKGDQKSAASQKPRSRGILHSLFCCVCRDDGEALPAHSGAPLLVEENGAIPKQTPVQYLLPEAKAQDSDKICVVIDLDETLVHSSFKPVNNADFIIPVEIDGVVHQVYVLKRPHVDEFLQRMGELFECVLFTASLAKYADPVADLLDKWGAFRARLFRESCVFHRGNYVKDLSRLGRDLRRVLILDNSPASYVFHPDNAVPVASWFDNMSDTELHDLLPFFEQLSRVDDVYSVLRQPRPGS

[15] = biological target: 72 kDa type IV collagenase (Homo sapiens, UniProt P08253); experiment: Dose Response validation of uHTS RPN11 inhibitor hits using a MMP-2 Fluorescence assay.; assay type: functional
Sequence of 72 kDa type IV collagenase (P08253 whole entry): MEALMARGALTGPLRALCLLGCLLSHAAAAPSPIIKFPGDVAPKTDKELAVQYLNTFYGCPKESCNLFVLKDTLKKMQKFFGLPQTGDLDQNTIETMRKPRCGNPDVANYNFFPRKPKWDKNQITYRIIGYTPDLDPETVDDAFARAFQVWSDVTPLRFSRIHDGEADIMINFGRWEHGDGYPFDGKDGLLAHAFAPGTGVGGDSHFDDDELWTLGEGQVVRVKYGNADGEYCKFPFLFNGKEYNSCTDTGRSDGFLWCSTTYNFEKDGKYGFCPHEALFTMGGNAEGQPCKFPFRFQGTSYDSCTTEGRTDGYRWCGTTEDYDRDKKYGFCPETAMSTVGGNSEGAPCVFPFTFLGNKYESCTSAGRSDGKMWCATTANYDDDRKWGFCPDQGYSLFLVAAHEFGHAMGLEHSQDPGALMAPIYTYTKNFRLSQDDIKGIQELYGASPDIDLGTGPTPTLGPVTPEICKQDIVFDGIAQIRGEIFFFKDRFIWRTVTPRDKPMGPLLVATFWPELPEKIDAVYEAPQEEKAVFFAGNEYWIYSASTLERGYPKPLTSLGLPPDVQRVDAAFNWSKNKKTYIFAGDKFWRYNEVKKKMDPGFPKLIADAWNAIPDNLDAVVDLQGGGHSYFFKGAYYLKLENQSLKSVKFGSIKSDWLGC

[16] = biological target: T8, Low molecular weight phosphotyrosine protein phosphatase; assay type: functional; conditions: read-out: IC50_Mean; remark: listed apart in the source
Prothrombin = Prothrombin (Bos taurus, UniProt P00735); experiment: thrombin inhibition, dose response, biochemical, fluorescence polarization, uHTS hits (AID 602369); assay type: functional

Cn1nc(C(F)(F)F)cc1-c1ccc(/C=C(\C#N)C(=O)c2ccccc2)s1
EC50 [1]: 11.2 µM (inconclusive)
EC50 [2]: > 99 µM (inactive)
EC50 [3]: > 99 µM (inactive)
EC50 [4]: 21.1 µM (inconclusive)

CCOc1cc(C)ccc1OCc1nnc(SCC(=O)c2cccc([N+](=O)[O-])c2)n1C
IC50 [5]: 2.11 µM (active)
AC50 (Cytochrome P450 2C9): inconclusive
IC50 [6]: 2.52 µM (active)
EC50 [7]: > 53 µM (inactive)
AC50 (Cytochrome P450 1A2): 15.8 µM (inconclusive)
AC50 (Cytochrome P450 3A4 [8]): 1.41 µM (inconclusive)

CN(C)c1ccc(Cc2ccc(N(C)C)cc2)cc1
IC50 [9]: 73.2 µM (active)
IC50 (Nonstructural protein 1): 36.6 µM (active)
AC50 (Cytochrome P450 3A4 [10]): 12.6 µM (inconclusive)
AC50 [11]: 70.8 µM (inconclusive)

O=c1c(Cl)c(N/N=C/c2ccc(Br)cc2)cnn1-c1ccccc1
IC50 [12]: > 80 µM (inactive)
IC50 [13]: 21.2 µM (active)
IC50 [14]: > 80 µM (inactive)
IC50 [15]: > 100 µM (inactive)
IC50 [16]: 21.6 µM (inactive)
IC50 (Prothrombin): > 100 µM (inactive)
